The supplement of paper PMC10307832

Tests used:
Assay in all cases: relative viability (nuclei count vs DMSO), 5 days (fraction); higher = more cells survive
[1] = tested on: ChaGo-K-1
Procedure, shortened: (§1)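 Relative viability was taken as the ratio of nuclei in treated wells to nuclei in vehicle wells. Lung cancer cell lines in 1536-well plates received compounds by pin tool one day after seeding, either one drug alone or a fixed anchor-drug dose plus five library-drug doses (not always all listed) in √10 steps. Nuclei were counted on 4× images after 5 days of treatment, and values are medians of duplicate plates.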

[2] = tested on: LCLC-97TM1
Procedure, shortened: as §1

[3] = tested on: NCI-H647
Procedure, shortened: as §1

[4] = tested on: NCI-H661
Procedure, shortened: as §1

[5] = tested on: COR-L 105
Procedure, shortened: as §1

[6] = tested on: PC-14
Procedure, shortened: as §1

[7] = tested on: NCI-H2087
Procedure, shortened: as §1

[8] = tested on: NCI-H1915
Procedure, shortened: as §1

[9] = tested on: LC-2-ad
Procedure, shortened: as §1

[10] = tested on: NCI-H650
Procedure, shortened: as §1

[11] = tested on: NCI-H23
Procedure, shortened: as §1

[12] = tested on: H3255
Procedure, shortened: as §1

[13] = tested on: NCI-H2347
Procedure, shortened: as §1

[14] = tested on: NCI-H1666
Procedure, shortened: as §1

[15] = tested on: 201T
Procedure, shortened: as §1

[16] = tested on: NCI-H2126
Procedure, shortened: as §1

[17] = tested on: NCI-H520
Procedure, shortened: as §1

[18] = tested on: RERF-LC-KJ
Procedure, shortened: as §1

[19] = tested on: HCC-827
Procedure, shortened: as §1

[20] = tested on: HCC-78
Procedure, shortened: as §1

[21] = tested on: NCI-H2405
Procedure, shortened: as §1

[22] = tested on: EPLC-272H
Procedure, shortened: as §1

SMILES: CC(=O)O[C@@]12CO[C@@H]1C[C@H](O)[C@@]1(C)C(=O)[C@H](O)C3=C(C)[C@@H](OC(=O)[C@H](O)[C@@H](NC(=O)OC(C)(C)C)c4ccccc4)C[C@@](O)([C@@H](OC(=O)c4ccccc4)[C@H]21)C3(C)C [Docetaxel] + CC(C)C[C@H](NC(=O)[C@H](Cc1ccccc1)NC(=O)c1cnccn1)B(O)O [Bortezomib] (partner 0.002 µM)
- relative viability ([1]; first compound 0.0002 µM): 1
- relative viability ([1]; first compound 0.000632 µM): 0.542
- relative viability ([1]; first compound 0.002 µM): 0.487
- relative viability ([1]; first compound 0.006325 µM): 0.419
- relative viability ([1]; first compound 0.02 µM): 0.267
- relative viability ([2]; first compound 0.0002 µM): 0.624
- relative viability ([2]; first compound 0.000632 µM): 0.125
- relative viability ([2]; first compound 0.002 µM): 0.106
- relative viability ([2]; first compound 0.006325 µM): 0.083
- relative viability ([2]; first compound 0.02 µM): 0.051
- relative viability ([3]; first compound 0.0002 µM): 0.762
- relative viability ([3]; first compound 0.000632 µM): 0.23
- relative viability ([3]; first compound 0.002 µM): 0.113
- relative viability ([3]; first compound 0.006325 µM): 0.123
- relative viability ([3]; first compound 0.02 µM): 0.0811
- relative viability ([4]; first compound 0.0002 µM): 0.702
- relative viability ([4]; first compound 0.000632 µM): 0.784
- relative viability ([4]; first compound 0.002 µM): 0.68
- relative viability ([4]; first compound 0.006325 µM): 0.634
- relative viability ([4]; first compound 0.02 µM): 0.224
- relative viability ([5]; first compound 0.0002 µM): 0.734
- relative viability ([5]; first compound 0.000632 µM): 0.595
- relative viability ([5]; first compound 0.002 µM): 0.423
- relative viability ([5]; first compound 0.006325 µM): 0.304
- relative viability ([5]; first compound 0.02 µM): 0.229
- relative viability ([6]; first compound 0.0002 µM): 0.826
- relative viability ([6]; first compound 0.000632 µM): 0.803
- relative viability ([6]; first compound 0.002 µM): 0.132
- relative viability ([6]; first compound 0.006325 µM): 0.103
- relative viability ([6]; first compound 0.02 µM): 0.0579
- relative viability ([7]; first compound 0.0002 µM): 0.701
- relative viability ([7]; first compound 0.000632 µM): 0.665
- relative viability ([7]; first compound 0.002 µM): 0.28
- relative viability ([7]; first compound 0.006325 µM): 0.224
- relative viability ([7]; first compound 0.02 µM): 0.142
- relative viability ([8]; first compound 0.0002 µM): 0.905
- relative viability ([8]; first compound 0.000632 µM): 0.95
- relative viability ([8]; first compound 0.002 µM): 0.577
- relative viability ([8]; first compound 0.006325 µM): 0.147
- relative viability ([8]; first compound 0.02 µM): 0.116
- relative viability ([9]; first compound 0.0002 µM): 0.702
- relative viability ([9]; first compound 0.002 µM): 0.125
- relative viability ([9]; first compound 0.006325 µM): 0.116
- relative viability ([9]; first compound 0.02 µM): 0.11
- relative viability ([10]; first compound 0.0002 µM): 0.636
- relative viability ([10]; first compound 0.000632 µM): 0.425
- relative viability ([10]; first compound 0.002 µM): 0.309
- relative viability ([10]; first compound 0.006325 µM): 0.233
- relative viability ([10]; first compound 0.02 µM): 0.196
- relative viability ([11]; first compound 0.0002 µM): 1.08
- relative viability ([11]; first compound 0.000632 µM): 0.574
- relative viability ([11]; first compound 0.002 µM): 0.399
- relative viability ([11]; first compound 0.006325 µM): 0.169
- relative viability ([11]; first compound 0.02 µM): 0.104
- relative viability ([12]; first compound 0.0002 µM): 0.864
- relative viability ([12]; first compound 0.000632 µM): 0.497
- relative viability ([12]; first compound 0.002 µM): 0.489
- relative viability ([12]; first compound 0.006325 µM): 0.284
- relative viability ([12]; first compound 0.02 µM): 0.272
- relative viability ([13]; first compound 0.0002 µM): 0.805
- relative viability ([13]; first compound 0.000632 µM): 0.832
- relative viability ([13]; first compound 0.002 µM): 0.326
- relative viability ([13]; first compound 0.006325 µM): 0.497
- relative viability ([13]; first compound 0.02 µM): 0.575
- relative viability ([14]; first compound 0.0002 µM): 0.582
- relative viability ([14]; first compound 0.000632 µM): 0.452
- relative viability ([14]; first compound 0.002 µM): 0.378
- relative viability ([14]; first compound 0.006325 µM): 0.249
- relative viability ([14]; first compound 0.02 µM): 0.205
- relative viability ([15]; first compound 0.0002 µM): 1.07
- relative viability ([15]; first compound 0.000632 µM): 1.1
- relative viability ([15]; first compound 0.002 µM): 1.03
- relative viability ([15]; first compound 0.006325 µM): 0.624
- relative viability ([15]; first compound 0.02 µM): 0.425
- relative viability ([16]; first compound 0.0002 µM): 1.12
- relative viability ([16]; first compound 0.000632 µM): 1.09
- relative viability ([16]; first compound 0.002 µM): 1.04
- relative viability ([16]; first compound 0.006325 µM): 0.427
- relative viability ([16]; first compound 0.02 µM): 0.288
- relative viability ([17]; first compound 0.0002 µM): 0.45
- relative viability ([17]; first compound 0.000632 µM): 0.233
- relative viability ([17]; first compound 0.002 µM): 0.251
- relative viability ([17]; first compound 0.006325 µM): 0.172
- relative viability ([17]; first compound 0.02 µM): 0.108
- relative viability ([18]; first compound 0.0002 µM): 0.967
- relative viability ([18]; first compound 0.000632 µM): 0.841
- relative viability ([18]; first compound 0.002 µM): 0.499
- relative viability ([18]; first compound 0.006325 µM): 0.251
- relative viability ([18]; first compound 0.02 µM): 0.198
- relative viability ([19]; first compound 0.0002 µM): 0.891
- relative viability ([19]; first compound 0.000632 µM): 0.962
- relative viability ([19]; first compound 0.002 µM): 1
- relative viability ([19]; first compound 0.006325 µM): 0.562
- relative viability ([19]; first compound 0.02 µM): 0.328
- relative viability ([20]; first compound 0.0002 µM): 0.581
- relative viability ([20]; first compound 0.000632 µM): 0.524
- relative viability ([20]; first compound 0.002 µM): 0.326
- relative viability ([20]; first compound 0.006325 µM): 0.487
- relative viability ([20]; first compound 0.02 µM): 0.27
- relative viability ([21]; first compound 0.0002 µM): 0.988
- relative viability ([21]; first compound 0.000632 µM): 0.956
- relative viability ([21]; first compound 0.002 µM): 0.681
- relative viability ([21]; first compound 0.006325 µM): 0.394
- relative viability ([21]; first compound 0.02 µM): 0.308
- relative viability ([22]; first compound 0.0002 µM): 0.761
- relative viability ([22]; first compound 0.000632 µM): 0.506
- relative viability ([22]; first compound 0.002 µM): 0.209
- relative viability ([22]; first compound 0.006325 µM): 0.168
- relative viability ([22]; first compound 0.02 µM): 0.0779
